This test relates to breast cancer cell line ZR-75-1. Kind of test: Inhibition of proliferation of breast cancer cell line ZR-75-1 (CellTiter-Glo). The class given is cell-based. Conditions: Homo sapiens, 240 h, proliferation of ZR-75-1 cells, 10 days of incubation, read-out: IC50 (KAT6A). The text has this: Test Example 1: Experiment for Determining Inhibitory Effects of Compounds on Proliferation of Breast Cancer Cell Line ZR-75-1
ATP is an indicator of the metabolism of living cells. The CellTiter-Glo® Luminescent Cell Viability Assay is a homogeneous assay method for determining the number of viable cells by quantifying ATP.
• 1) ZR-75-1 (Cell Bank of Chinese Academy of Sciences, TCHul26) • 2) RPMI-1640 medium (Gibco, 11875-093) • 3) Fetal Bovine Serum, New Zealand (Gibco,10091-148) • 4) Penicillin-streptomycin (10,000 U/mL) (Gibco, 15140-122) • 5) Trypsin-EDTA (0.25%), containing phenol red (Gibco, 25200-072) • 6) DPBS (Shanghai BasalMedia, B210KJ) • 7) Corning® 96-well Clear Flat Bottom Ultra-Low Attachment Microplate (Corning, Cat. No. 3474) • 8) 330 μL 96 Holes Deep Well Plate, transparents, 96 Round Holes, V-shaped Bottom, Low Retention (Stellar Scientific, DP33VR-9-NS) • 9) Corning® 96-well solid white flat-bottom polystyrene microplate (Corning, Cat. No. 3917) • 10) CellTiter-Glo® Luminescent Cell Viability Assay (Promega, G7573) • 11) Countstar® BioMed automatic cell counter • 12) Trypan blue solution, 0.4% (Gibco, Cat. No. 15250061) • 13) 37° C. constant-temperature incubator (Thermo, FORMA STERI-CYCLE i160 LK) • 14) Biosafety cabinet (Thermo, 1379)
• 1) The formula of the complete medium for ZR-75-1 was as follows: 500 mL RPMI-1640+10% FBS+1% penicillin-streptomycin. • 2) Thirty minutes before cell plating, the complete medium, serum, trypsin, and DPBS for use in ZR-75-1 cell culture were pre-warmed in a water bath at 37° C. • 3) The ZR-75-1 cells were taken out of the incubator, and the medium was removed by pipetting. The cells were rinsed once with 5 mL of DPBS, and then the DPBS was discarded. • 4) The cells in the T75 culture flask were digested with 1-3 mL of (0.25%) trypsin-EDTA. After the trypsin was added, the culture flask was incubated in an incubator at 37° C. for 2-5 min, and dispersion was confirmed by microscopic examination. Tapping or agitating the culture flask was avoided to prevent disturbing the cells, which might cause cell clumping. • 5) 9 mL of the complete medium was added to terminate the digestion, thus forming a cell suspension, which was then mixed well by pipetting. • 6) Cell suspension counting: 20 μL of the cell suspension was pipetted and diluted with 20 µL of the 0.4% trypan blue solution (Gibco, Cat. No. 15250061). The total cell count and the percentage of cell viability were determined using the Countstar® BioMed automatic cell counter. Only cells with a cell viability of no less than 95% were used for the experiment. • 7) The concentration of the cell suspension was adjusted to 2000 cells/well, and the cell suspension was added to a 96-well cell culture plate at 80 μL/well. Treatment of Cells with Compounds • 1) Twenty-four hours after cell plating, the cell plate was taken out. • 2) Each compound was prepared with a complete medium. The stock solution was a 10 mM solution in DMSO, which was first diluted with the medium to 100 μM, then diluted to 1 μM, and finally subjected to a 5-fold serial dilution across a total of 9 concentration gradients. • 3) 20 μL of the compound diluted with the medium was added to each well of the cell culture plate, which already contained 80 μL of the medium. The final concentration started at 200 nM, followed by a 5-fold serial dilution across a total of 9 concentration gradients. Two replicate wells were set for each compound, and each plate could be used to test 3 compounds, with the DMSO content controlled within 0.5%. • 4) The culture medium was replenished once every three days with a complete medium containing the same concentration of the test compound, with 20 μL/well added each time.
After 10 days of incubation with the compound, the cell culture plate was taken out, and the CellTiter-Glo® reagent was added at 50 μL/well. […]
Background: Cellular ATP, detected with luciferase, serves as a proxy for viable cell number.
Broadly, the IC50 is the point on the concentration scale where inhibition reaches its midpoint. Turning to `COc1cc(Cn2cccn2)cc2onc(NS(=O)(=O)c3ccccc3OC3CCC3)c12` [Compound 1, N-(6-((1H-Pyrazol-1-yl)methyl)-4-methoxybenzo[d]isoxazol-3-yl)-2-cyclobutoxybenzenesulfonamide], the IC50 fell in the range of 0.5 to 2 nM.

As to `COc1cc(Cn2cccn2)cc2onc(NS(=O)(=O)c3ccccc3OC3CC(F)(F)C3)c12` [Compound 2, N-(6-((1H-Pyrazol-1-yl)methyl)-4-methoxybenzo[d]isoxazol-3-yl)-2-(3,3-difluorocyclobutoxy)benzenesulfonamide], the IC50 lay within 2 to 10 nM. In the case of `COc1cc(Cn2cccn2)cc2onc(NS(=O)(=O)c3cc(C(C)(C)C)ccc3OC3CCC3)c12` [Compound 3, N-(6-((1H-Pyrazol-1-yl)methyl)-4-methoxybenzo[d]isoxazol-3-yl)-5-(tert-butyl)-2-cyclobutoxybenzenesulfonamide], the IC50 was 2 to 10 nM. Regarding `COc1cc(Cn2cccn2)cc2onc(NS(=O)(=O)c3cccc4c3OCO4)c12` [Compound 4, N-(6-((1H-Pyrazol-1-yl)methyl)-4-methoxybenzo[d]isoxazol-3-yl)benzo[d][1,3]dioxole-4-sulfonamide], the IC50 fell in the range of 10 to 50 nM.

Regarding `COc1cc(Cn2cccn2)cc2onc(NS(=O)(=O)c3cccc4c3OC(F)(F)O4)c12` [Compound 5, N-(6-((1H-Pyrazol-1-yl)methyl)-4-methoxybenzo[d]isoxazol-3-yl)-2,2-difluorobenzo[d][1,3]dioxole-4-sulfonamide], the IC50 was no less than 50 nM. On to `CC(C)Oc1cc(Cn2cccn2)cc2onc(NS(=O)(=O)c3cc(C(C)(C)C)ccc3OC3CCC3)c12` [Compound 6, N-(6-((1H-Pyrazol-1-yl)methyl)-4-isopropoxybenzo[d]isoxazol-3-yl)-5-(tert-butyl)-2-cyclobutoxybenzenesulfonamide], for which the IC50 lay within 2 to 10 nM. For `COc1c(F)c(Cn2cccn2)cc2onc(NS(=O)(=O)c3cc(C(C)(C)C)ccc3OC3CCC3)c12` [Compound 7, N-(6-((1H-Pyrazol-1-yl)methyl)-5-fluoro-4-methoxybenzo[d]isoxazol-3-yl)-5-(tert-butyl)-2-cyclobutoxybenzenesulfonamide], the IC50 lay in the range of 0.5 to 2 nM. The same measure for `CC(C)(C)c1ccc(OC2CCC2)c(S(=O)(=O)Nc2noc3cc(Cn4cccn4)c(C4CC4)cc23)c1` [Compound 8, N-(6-((1H-Pyrazol-1-yl)methyl)-5-cyclopropylbenzo[d]isoxazol-3-yl)-5-(tert-butyl)-2-cyclobutoxybenzenesulfonamide]: 10 to 50 nM; for `COc1ccccc1S(=O)(=O)Nc1nsc2cc(Cn3cccn3)cc(OC)c12` [Compound 9, N-(6-((1H-Pyrazol-1-yl)methyl)-4-methoxybenzo[d]isothiazol-3-yl)-2-methoxybenzenesulfonamide]: no less than 50 nM; for `COc1cc(Cn2cccn2)cc2onc(NS(=O)(=O)c3cc(C(C)C)ccc3OCC(F)F)c12` [Compound 10, N-(6-((1H-Pyrazol-1-yl)methyl)-4-methoxybenzo[d]isoxazol-3-yl)-2-(2,2-difluoroethoxy)-5-isopropylbenzenesulfonamide]: 2 to 10 nM.

For the molecule `COc1ccccc1S(=O)(=O)Nc1noc2cc(Cn3cccn3)cc(OC(F)F)c12` [Compound 11, N-(6-((1H-Pyrazol-1-yl)methyl)-4-(difluoromethoxy)benzo[d]isoxazol-3-yl)-2-methoxybenzenesulfonamide], the IC50 was 2 to 10 nM.

For the molecule `COc1cccc(OC)c1S(=O)(=O)Nc1noc2cc(Cn3cccn3)cc(OC(F)F)c12` [Compound 12, N-(6-((1H-Pyrazol-1-yl)methyl)-4-(difluoromethoxy)benzo[d]isoxazol-3-yl)-2,6-dimethoxybenzenesulfonamide], the IC50 was 2 to 10 nM. As for `COc1ccc(C(C)(C)O)cc1S(=O)(=O)Nc1noc2cc(Cn3cccn3)cc(OC)c12` [Compound 13, N-(6-((1H-Pyrazol-1-yl)methyl)-4-methoxybenzo[d]isoxazol-3-yl)-5-(2-hydroxypropan-2-yl)-2-methoxybenzenesulfonamide], the IC50 lay within 0.5 to 2 nM. In the case of `COc1ccc2c(c1S(=O)(=O)Nc1noc3cc(Cn4cccn4)cc(OC)c13)OCCO2` [Compound 14, N-(6-((1H-Pyrazol-1-yl)methyl)-4-methoxybenzo[d]isoxazol-3-yl)-6-methoxy-2,3-dihydrobenzo[b][1,4]dioxine-5-sulfonamide], the IC50 lay within 0.5 to 2 nM. For `COc1ccc2c(c1S(=O)(=O)Nc1noc3cc(Cn4cccn4)cc(OC)c13)OCCC21CCC1` [Compound 15, N-(6-((1H-Pyrazol-1-yl)methyl)-4-methoxybenzo[d]isoxazol-3-yl)-7-methoxyspiro[chromane-4,1′-cyclobutane]-8-sulfonamide] the value was less than 0.5 nM; for `COc1ccc2c(c1S(=O)(=O)Nc1noc3cc(Cn4cccn4)cc(OC)c13)OCCC2(C)C` [Compound 16, N-(6-((1H-Pyrazol-1-yl)methyl)-4-methoxybenzo[d]isoxazol-3-yl)-7-methoxy-4,4-dimethylchromane-8-sulfonamide], less than 0.5 nM.

Consider `COc1ccc2c(c1S(=O)(=O)Nc1noc3cc(Cn4cccn4)cc(OC)c13)OCO2` [Compound 17, N-(6-((1H-Pyrazol-1-yl)methyl)-4-methoxybenzo[d]isoxazol-3-yl)-5-methoxybenzo[d][1,3]dioxole-4-sulfonamide], for which the concentration for half-maximal inhibition (IC50) lay within 0.5 to 2 nM. For `COc1ccc2c(c1S(=O)(=O)Nc1noc3cc(Cn4cccn4)cc(OC)c13)OC(C)(C)O2` [Compound 18, N-(6-((1H-Pyrazol-1-yl)methyl)-4-methoxybenzo[d]isoxazol-3-yl)-5-methoxy-2,2-dimethylbenzo[d][1,3]dioxole-4-sulfonamide] the value was 2 to 10 nM; for `COc1ccc2c(c1S(=O)(=O)Nc1noc3cc(Cn4cccn4)cc(OC)c13)OC(C)(C)C2` [Compound 19, N-(6-((1H-Pyrazol-1-yl)methyl)-4-methoxybenzo[d]isoxazol-3-yl)-6-methoxy-2,2-dimethyl-2,3-dihydrobenzofuran-7-sulfonamide], 2 to 10 nM. Consider `COc1ccc2c(c1S(=O)(=O)Nc1noc3cc(Cn4cccn4)cc(OC)c13)OCC2(C)C` [Compound 20, N-(6-((1H-Pyrazol-1-yl)methyl)-4-methoxybenzo[d]isoxazol-3-yl)-6-methoxy-3,3-dimethyl-2,3-dihydrobenzofuran-7-sulfonamide], for which the IC50 lay within 0.5 to 2 nM. Take `COc1cccc(OC2CCC2)c1S(=O)(=O)Nc1noc2cc(Cn3cccn3)cc(OC)c12` [Compound 21, N-(6-((1H-Pyrazol-1-yl)methyl)-4-methoxybenzo[d]isoxazol-3-yl)-2-cyclobutoxy-6-methoxybenzenesulfonamide]: the IC50 lay within 2 to 10 nM.

Regarding `CCc1ccc(OC2CCC2)c(S(=O)(=O)Nc2noc3cc(Cn4cccn4)cc(OC)c23)c1` [Compound 22, N-(6-((1H-Pyrazol-1-yl)methyl)-4-methoxybenzo[d]isoxazol-3-yl)-2-cyclobutoxy-5-ethylbenzenesulfonamide], the IC50 lay in the range of 2 to 10 nM. As for `COc1cc(Cn2cccn2)cc2onc(NS(=O)(=O)c3cc(C(C)C)ccc3OC3CCC3)c12` [Compound 23, N-(6-((1H-Pyrazol-1-yl)methyl)-4-methoxybenzo[d]isoxazol-3-yl)-2-cyclobutoxy-5-isopropylbenzenesulfonamide], the IC50 was 2 to 10 nM.

The record behind these values is patent publication US20260174778A1, “SULFONAMIDE COMPOUND, AND PREPARATION METHOD THEREFOR AND USE THEREOF” (SHANGHAI HENLIUS BIOTECH, INC., priority 2023, published 2026).
